{"source": "paper PMC5996347", "about": "“2-Mercapto-Quinazolinones as Inhibitors of Type II NADH Dehydrogenase and Mycobacterium tuberculosis: Structure–Activity Relationships, Mechanism of Action and Absorption, Distribution, Metabolism, and Excretion Characterization” (ACS Infectious Diseases, 2018)", "format_in_all_cases": "cell-based, Mycobacterium tuberculosis", "key": {"[1]": {"tested_on": "anaerobic nonreplicating MTb cells", "assay": "Anaerobic cidal activity on nonreplicating cells"}, "nuoG deletion mutant": {"tested_on": "nuoG deletion mutant", "settings": "results not shown"}, "ΔndhA mutant": {"tested_on": "ΔndhA mutant"}}, "note": "“Also recorded” adds a separate entry of the source."}
{"compound": "O=C(CSc1nc2ccccc2c(=O)[nH]1)NC1CCCCC1", "note": "[Compound 1, N-Cyclohexyl-2-((4-oxo-3,4-dihydroquinazolin-2-yl)thio)acetamide]", "values": [{"measurement": "Anaerobic cidal activity / viability of anaerobic nonreplicating cells", "setting": "[1]", "result": "Lack of anaerobic cidal activity; also recorded: did not affect viability"}, {"measurement": "MIC to nuoG deletion mutant compared with WT", "setting": "nuoG deletion mutant", "result": "indistinguishable from WT cells"}, {"measurement": "Kill of ΔndhA mutant", "setting": "ΔndhA mutant", "result": "~2", "unit": "log"}]}
